In US8143253B2, “Organic compounds” (Novartis AG, priority 2007, dated 2012):

System: dimethylnitrosamine induced liver fibrosis
Assay: not given
Details: rat, during the 3 weeks treatment; cited from earlier work

Row | Compound | side effects
1 | c1ccc(-c2cc(-c3cn[nH]c3-c3ccccn3)ccn2)cc1 [GW6604] | no obvious side effects

Same assay, conditions: rat, given therapeutically; cited from earlier work

Row | Compound | inhibited extracellular matrix deposition | prevented death rate
2 | c1ccc(-c2cc(-c3cn[nH]c3-c3ccccn3)ccn2)cc1 [GW6604] | 60% | 40%

Target: T1, human ALK5 (ALK5 T204D kinase domain) (Homo sapiens, UniProt P36897, T204D)
T1 construct: The kinase domain of human ALK5 (amino acids 200-503) is fused to an N-terminal histidine tag; made in house; host or cells: insect cells (baculovirus)
T1 sequence (P36897 200-503 T204D): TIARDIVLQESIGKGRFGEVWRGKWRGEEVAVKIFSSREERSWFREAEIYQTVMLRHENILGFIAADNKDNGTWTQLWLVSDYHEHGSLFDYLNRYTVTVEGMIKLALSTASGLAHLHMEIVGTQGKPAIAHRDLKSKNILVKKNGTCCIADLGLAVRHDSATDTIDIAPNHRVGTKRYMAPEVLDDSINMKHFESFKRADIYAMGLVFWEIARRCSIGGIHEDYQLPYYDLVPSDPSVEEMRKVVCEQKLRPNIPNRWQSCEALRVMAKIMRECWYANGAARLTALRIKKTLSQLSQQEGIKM
Assay: ALK5 kinase activity, radiolabelled phosphate [33P] incorporation into casein
Type: biochemical
Details: casein substrate, 1 μM unlabelled ATP
Description: The kinase activity of ALK5 is assessed by measuring radiolabelled phosphate [33P] incorporation in to the generic substrate, casein. The kinase domain of human ALK5 (amino acids 200-503) is fused to an N-terminal histidine tag. The kinase activity of ALK5 is rendered constitutive via point mutation at amino acid 204 (threonine to aspartate modification, ALK5 T204D) and the kinase construct is engineered to be expressed from a baculovirus expression construct in insect cells. The purified, recombinantly-expressed histidine-tagged ALK5 T204D protein is dissolved at 5.4 mg/ml in 50 mM Tris-HCl pH 8.0, 150 mM NaCl, 5 mM DTT. ALK5 T204D is dissolved to 2.5 μg/ml in assay buffer (Assay buffer: 20 mM Tris-HCl pH 7.4, 10 mM MgCl2, 2 mM MnCl2) on the day of use.
Test compounds and reference compounds are dissolved in assay buffer without DTT containing 5% (v/v) DMSO. Stock solutions of test and reference compounds are diluted in assay buffer with DTT (1.25 mM) containing 4.5% (v/v) DMSO. 10 μl of test or reference compound are added to the corresponding wells of 96 well U-bottomed plate. Total enzyme activity is determined by measuring ALK5 T204D activity in the absence of ALK5 kinase inhibitor reference compounds. Non-specific binding (NSB) is determined by measuring the activity of ALK5 T204D in the presence of ALK5 kinase inhibitor reference compounds. 10 μl of dephosphorylated casein stock solution (dephosphorylated casein is dissolved in ddH2O at 20 mg/ml) is added per well (200 μg/well final assay concentration). 20 μl of ALK5 T204D (2.5 μg/ml solution) is added per well (50 ng/well final assay concentration). The plates are left to incubate at room temperature for 10 minutes.
10 μl of ATP mix is added to the well to initiate the reaction (0.66 nM [^33P]ATP/1 μM unlabelled ATP/well final assay concentration). The ATP mix is prepared as follows, unlabelled ATP (3 mM) is dissolved in ddH2O and pH adjusted to 7.4. The stock concentration of [^33P]ATP is 10 μCi/μl. The corresponding volume of [^33P]ATP is added to unlabelled ATP solution such that the final assay concentration per well is 0.1 μCi. Following addition of the ATP mix, the plates are incubated at room temperature for 50 minutes. The kinase reaction is terminated by the addition of 50 μL Stop Buffer (20 mM Tris-HCl pH 7.4, 10 mM EDTA).
75 μl/well from the reaction plate is transferred to a Multiscreen-IP plate (MultiScreen-IP plates are prepared by added 50 μL of 70% (v/v) ethanol per well and incubated for 5 minutes at room temperature. The ethanol is removed by aspiration via a MultiScreen HTS Vacuum Manifold unit (Millipore, Cat no: MSVMHT500). The plates are washed twice by adding 200 μl/well ddH2O). The MultiScreen-IP plate is incubated at room temperature for 30 minutes to allowing binding of casein to the plate. The MultiScreen-IP plates are washed three times by adding 200 μl/well 100 mM phosphoric acid solution and the gasket is carefully removed from the back of the MultiScreen-IP plate and the plate dried in the oven for 30 minutes. The MultiScreen-IP plate is backsealed, 50 μL of Microscint™ 20 is added, then the plates are topsealed and radiolabelled casein detected and quantified on a TopCount™ plate-reader using the ^33P scintillation protocol.

Row | Compound | IC50
3 | Oc1cccc(-c2cnn3c(-c4cccc(-n5cccn5)c4)cnc3c2)c1 [Example 8, 3-[3-(3-Pyrazol-1-yl-phenyl)-imidazo[1,2-b]pyridazin-7-yl]-phenol] | 24 nM
4 | c1ccc(-c2cc(-c3cnc4cc(-c5ccncc5)cnn34)ccn2)cc1 [Example 10, 3-(2-Phenyl-pyridin-4-yl)-7-pyridin-4-yl-imidazo[1,2-b]pyridazine] | 28 nM
5 | c1cncc(-c2cnn3c(-c4cccc(-n5cccn5)c4)cnc3c2)c1 [Example 18, 3-(3-Pyrazol-1-yl-phenyl)-7-pyridin-3-yl-imidazo[1,2-b]pyridazine] | 47 nM
6 | COc1cc(-c2cnc3cc(-c4cccnc4)cnn23)ccc1O [Example 20, 2-Methoxy-4-(7-pyridin-3-yl-imidazo[1,2-b]pyridazin-3-yl)-phenol] | 203 nM
7 | CCOC(=O)c1ccc(-c2cnn3c(-c4cccc(-n5cccn5)c4)cnc3c2)cc1 [Example 34, 4-[3-(3-Pyrazol-1-yl-phenyl)-imidazo[1,2-b]pyridazin-7-yl]-benzoic acid ethyl ester] | 141 nM

More lines, now with the values ahead:

Row | IC50 | Compound
8 | 83 nM | CNC(=O)c1cccc(-c2cnn3c(-c4ccnc(-c5ccccc5)c4)cnc3c2)c1 [Example 1, N-Methyl-3-[3-(2-phenyl-pyridin-4-yl)-imidazo[1,2-b]pyridazin-7-yl]-benzamide]
9 | 139 nM | CNC(=O)c1cccc(-c2cnn3c(-c4ccnc(-c5ccc(F)cc5)c4)cnc3c2)c1 [Example 6, 3-{3-[2-(4-Fluoro-phenyl)-pyridin-4-yl]-imidazo[1,2-b]pyridazin-7-yl}-N-methyl-benzamide]
10 | 42 nM | CS(=O)(=O)Nc1cccc(-c2cnn3c(-c4ccnc(-c5ccoc5)c4)cnc3c2)c1 [Example 14, N-{3-[3-(2-Furan-3-yl-pyridin-4-yl)-imidazo[1,2-b]pyridazin-7-yl]-phenyl}-methanesulfonamide]
11 | 83 nM | NC(=O)c1cccc(-c2cnc3cc(-c4cccc(F)c4)cnn23)c1 [Example 24, 3-[7-(3-Fluoro-phenyl)-imidazo[1,2-b]pyridazin-3-yl]-benzamide]
12 | 236 nM | CCCCNC(=O)c1cccc(-c2cnn3c(-c4ccnc(-c5ccccc5)c4)cnc3c2)c1 [Example 59, N-Butyl-3-[3-(2-Phenyl-pyridin-4-yl)-imidazo[1,2-b]pyridazin-7-yl]-benzamide]
